From patent US9226927B2, “Gamma secretase inhibitors” (MERCK SHARP & DOHME CORP., priority 2011, dated 2016)

Target: γ-secretase (Homo sapiens (Human), UniProt P49768)
Test: γ-secretase membrane assay with Aβ40 ECL immunoassay
Assay type: biochemical
Details: membranes of 293 cells expressing C99 (SPC99-lon), 37° C. for 1 h, Aβ 40 by ECL immunoassay
Experimental: Gamma-secretase activity was determined as described by Zhang et al. (Biochemistry, 40 (16), 5049-5055, 2001), which is herein incorporated by reference. Activity is expressed either as a percent inhibition or as the concentration of compound producing 50% inhibition of enzyme activity.
The construct SPC99-Ion, which contains the first 18 residues and the C-terminal 99 amino acids of APP carrying the London mutation, has been described (Zhang, L., Song, L., and Parker, E. (1999) J. Biol. Chem. 274, 8966-8972). Upon insertion into the membrane, the 17 amino acid signal peptide is processed, leaving an additional leucine at the N-terminus of Aβ. SPC99-lon was cloned into the pcDNA4/TO vector (Invitrogen) and transfected into 293 cells stably transfected with pcDNA6/TR, which is provided in the T-REx system (Invitrogen). The transfected cells were selected in Dulbecco's modified Eagle's media (DMEM) supplemented with 10% fetal bovine serum, 100 units/mL penicillin, 100 µg/mL streptomycin, 250 µg/mL zeocin, and 5 µg/mL blasticidin (Invitrogen). Colonies were screened for Aβ production by inducing C99 expression with […] tetracycline for 16-20 h and analyzing conditioned media with a sandwich immunoassay (see below). One of the clones, designated as pTRE.15, was used in these studies.
C99 expression in cells was induced with […] tetracycline for 20 h. The cells were pretreated with […] 12-myristate 13-acetate (PMA) and […] brefeldin A (BFA) for 5-6 h at 37 C before harvesting. The cells were washed 3 times with cold phosphate-buffered saline (PBS) and harvested in buffer A containing 20 mM Hepes (pH 7.5), 250 mM sucrose, 50 mM KCl, 2 mM EDTA, 2 mM EGTA, and Complete protease inhibitor tablets (Roche Molecular Biochemicals). The cell pellets were flash-frozen in liquid nitrogen and stored at −70° C. before use.
To make membranes, the cells were resuspended in buffer A and lysed in a nitrogen bomb at 600 psi. The cell lysate was centrifuged at 1500 g for 10 min to remove nuclei and large cell debris. The supernatant was centrifuged at 100000 g for 1 h. The membrane pellet was resuspended in buffer A plus 0.5 M NaCl, and the membranes were collected by centrifugation at 200000 g for 1 h. The salt-washed membrane pellet was washed again in buffer A and centrifuged at 100000 g for 1 h. The final membrane pellet was resuspended in a small volume of buffer A using a Teflon-glass homogenizer. The protein concentration was determined, and membrane aliquots were flash-frozen in liquid nitrogen and stored at −70° C.
To measure γ-secretase activity, membranes were incubated at 37° C. for 1 h in 50 μL of buffer containing 20 mM Hepes (pH 7.0) and 2 mM EDTA. At the end of the incubation, Aβ 40 and Aβ 42 were measured using an electrochemiluminescence (ECL)-based immunoassay. Aβ 40 was identified with antibody pairs TAG-G2-10 and biotin-W02, while Aβ 42 was identified with TAG-G2-11 and biotin-4G8. The ECL signal was measured using an ECL-M8 instrument (IGEN International, Inc.) according to the manufacturer's instructions. The data presented were the means of the duplicate or triplicate measurements in each experiment. The characteristics of γ-secretase activity described were confirmed using more than five independent membrane preparations.

IC50 [nM] | Structure (SMILES)
1.4 | O=S(=O)(CC[C@@H]1OCC[C@@]2(S(=O)(=O)c3ccc(Cl)cc3)c3c(F)ccc(F)c3OC[C@@H]12)CCn1cccn1 [Compound 4]
2.8 | O=c1[nH]cccc1S(=O)(=O)CC[C@@H]1OCC[C@@]2(S(=O)(=O)c3ccc(Cl)cc3)c3c(F)ccc(F)c3OC[C@@H]12 [Compound 27a]
5.8 | Cc1nc(CS(=O)(=O)CC[C@@H]2OCC[C@@]3(S(=O)(=O)c4ccc(Cl)cc4)c4c(F)ccc(F)c4OC[C@@H]23)no1 [Compound 14]
1.7 | O=S(=O)(CC[C@@H]1OCC[C@@]2(S(=O)(=O)c3ccc(Cl)cc3)c3c(F)ccc(F)c3OC[C@@H]12)Cc1ncon1 [Compound 11]
16.5 | COc1ccc(S(=O)(=O)CC[C@@H]2OCC[C@@]3(S(=O)(=O)c4ccc(Cl)cc4)c4c(F)ccc(F)c4OC[C@@H]23)cn1 [Compound 25h]
6.6 | O=S(=O)(CC[C@@H]1OCC[C@@]2(S(=O)(=O)c3ccc(Cl)cc3)c3c(F)ccc(F)c3OC[C@@H]12)Cc1cccnc1 [Compound 8b]
2.9 | O=S(=O)(CC[C@@H]1OCC[C@@]2(S(=O)(=O)c3ccc(Cl)cc3)c3c(F)ccc(F)c3OC[C@@H]12)c1ccncn1 [Compound 25f]
12.9 | O=S(=O)(CC[C@@H]1OCC[C@@]2(S(=O)(=O)c3ccc(Cl)cc3)c3c(F)ccc(F)c3OC[C@@H]12)c1cncnc1 [Compound 25g]
10.2 | O=S(=O)(CC[C@@H]1OCC[C@@]2(S(=O)(=O)c3ccc(Cl)cc3)c3c(F)ccc(F)c3OC[C@@H]12)c1ccnnc1 [Compound 25d]
18.7 | O=c1ccc(S(=O)(=O)CC[C@@H]2OCC[C@@]3(S(=O)(=O)c4ccc(Cl)cc4)c4c(F)ccc(F)c4OC[C@@H]23)c[nH]1 [Compound 25a]
18 | Nc1ncccc1S(=O)(=O)CC[C@@H]1OCC[C@@]2(S(=O)(=O)c3ccc(Cl)cc3)c3c(F)ccc(F)c3OC[C@@H]12 [Compound 27b]
1.9 | O=S(=O)(CC[C@@H]1OCC[C@@]2(S(=O)(=O)c3ccc(Cl)cc3)c3c(F)ccc(F)c3OC[C@@H]12)Cc1ccccn1 [Compound 8a]
4.5 | O=S(=O)(CC[C@@H]1OCC[C@@]2(S(=O)(=O)c3ccc(Cl)cc3)c3c(F)ccc(F)c3OC[C@@H]12)c1cccnn1 [Compound 25b]
6.4 | O=S(=O)(CC[C@@H]1OCC[C@@]2(S(=O)(=O)c3ccc(Cl)cc3)c3c(F)ccc(F)c3OC[C@@H]12)c1ncccn1 [Compound 25e]
5.5 | O=S(=O)(CC[C@@H]1OCC[C@@]2(S(=O)(=O)c3ccc(Cl)cc3)c3c(F)ccc(F)c3OC[C@@H]12)c1cnccn1 [Compound 25c]
